Earlier results in patent publication EP0682945B1, “Oral sustained release preparation” (Lannacher Heilmittel Ges.m.b.H., priority 1994, dated 1995).

Conditions: orale Anwendung, im Mittel

SMILES: CN1CC[C@]23c4c5ccc(O)c4O[C@H]2[C@@H](O)C=C[C@H]3[C@H]1C5 [Morphin]
- Bioverfügbarkeit: 38%
